Where no end group is shown, it is not given here.
Tests used:
[1] = tested on: RPMI8226 cells; assay type: cell-based, human; conditions: for MTT value, VEGF-induced RPMI8226 cell proliferation: 10 ng/ml VEGF + 25 μM peptide, serum-free medium, solvent-treated/untreated cells set as 100%, three independent experiments
Method: Human multiple myeloma cells, RPMI8226 were purchased from Bioresource Collection and Research Center (Hsinchu, Taiwan). Cells were cultivated in RPMI1640 medium supplemented with 10% FBS, 50 μg/ml penicillin, 50 μg/ml streptomycin, and 2 mM L-glutamine at 37 °C in a 5% CO2 atmosphere. Cell viability was determined by an MTT assay. […] MTT stock solution added to medium alone was included as a negative control. Aliquots (450 μl) from each sample were transferred to a new well of a 48-well culture plate, 100 μl DMSO added with thorough mixing, and allowed to react at 37 °C for 20 min before reading the absorbance at 570 nm.

[2] = cited from earlier work; for anti-angiogenic and antitumor activities of human PEDF: previous studies
Source text: Pigment epithelial-derived factor (PEDF) was initially identified in the culture supernatant of human fetal retinal pigment epithelial cells, with the ability to promote neuronal differentiation of retinoblastoma Y79 cells. […] Presently, full-length PEDF is considered to be less suitable as an anti-angiogenic agent than PEDF-derived active fragments because of several issues, including antigenicity, s ... || Identification of angioinhibitory peptides derived from PEDF may be a promising strategy for improving the treatment of angiogenesis-related diseases. […] Here, we found for the first time that the 7-mer peptide (D64-S70), representing a minimal region within PEDF, reproduced the anti-VEGF effect, comparab ...

[3] = tested on: RPMI8226 cells; assay: Annexin V-FITC/PI double-staining apoptosis assay in RPMI8226 cells; assay type: cell-based, human
Method: (§1) Cell apoptosis was examined using a TACS annexin V-FITC kit according to the manufacturer’s instructions for in situ staining. The cell numbers were monitored by counterstaining with Hoechst 33342. Afterward, apoptosis was examined and photographed by a Zeiss epifluorescence microscope (× 100, 10 fields/sample). Images were recorded on Zeiss software.
Fig. 2 The 34-mer and 7-mer induce apoptosis of RPMI8226 cells. a Fluorescence microscopy of annexin V-FITC/PI double staining. Treatment of RPMI8226 cells was as described in Fig. 1. Apoptosis was determined by annexin V-FITC staining (green dots) and double stained with propidium iodide (red dots). A representative of three independent experiments is shown. b The percentage of apoptotic cells was quantified by dividing the number of annexin V-positive cells by the total number of cells counted by phase-contrast light microscopy. Control peptide indicates cells were treated with the 5-mer. Histograms show means ± SD. ^aP < 0.005 versus peptide solvent-treated cells. ^bP < 0.0002 versus VEGF-treated cells. ^cP < 0.001 versus 34-mer-treated cells
Fig. 3 The 7-mer induces JNK signaling to trigger RPMI8226 cell apoptosis. 3 × 10^5 cells were serum starved for 24 h and then exposed to 10 ng/ml VEGF and 25 μM 7-mer for the indicated time periods. a Western blotting was performed to detect the active phosphorylated forms of JNK (p-JNK) and p38 MAPK (p-p38), shown in the upper panels. Antibodies were then stripped and the blots were re-incubated with anti-JNK and anti-p38 MAPK antibodies (lower panels), respectively, to detect the levels of total JNK and p38 MAPK. b Densitometric analyses from three independent experiments are shown. c Cell were pretreated with 10 μM SP600125 or SB203580 for 10 min and then treated as described above for 24 h and apoptosis was quantified using the annexin V-FITC apoptosis detection kit. *P < 0.0001 versus 7-mer-treated cells

[4] = tested on: HUVECs; assay: Endothelial cell capillary-like tube formation assay; assay type: cell-based, human; conditions: 20 ng/ml VEGF, 10 μM 7-mer, matrigel, 0.5% FBS, 6 h
Method: (§2) Cells were grown in Medium 200 with LSGS (supplement contains 1.9% fetal bovine serum, 3 ng/ml bFGF, 10 μg/ml heparin, 1 μg/ml hydrocortisone, and 10 ng/ml EGF). Culture plates were coated with 2% gelatin. Cells (passages 4–8) were cultured at 37 °C in a humidified atmosphere of 5% CO2. For peptide treatment, HUVECs were cultured in low serum (0.5% FBS) medium containing 20 ng/ml VEGF and 7-mer peptide (20 μM, unless otherwise specified).
Growth factor-reduced matrigel was pipetted into pre-chilled 24-well plates (150 μl matrigel per well) and polymerized for 45 min at 37 °C. HUVECs (4 × 10^4 per well) in low serum (0.5% FBS) medium were treated with 20 ng/ml VEGF and 7-mer (10 μM) in matrigel coated plates. After 6 h of incubation, tubular structures were photographed. Images were captured using a Cannon camera on a Zeiss inverted microscope with magnification × 40.
The experiment was repeated three times. Magnification is × 40. b The 7-mer induces HUVEC apoptosis in the presence of VEGF. Cell apoptosis was analyzed using the Annexin V-FITC Apoptosis Detection kit according to the in situ staining protocol after treatment for 16 h. Double staining with an annexin V-FITC and the fluorescent dye Hoechst 33342 was used to visualize the apoptotic cells (green) and nuclei (blue), respectively. […] The percentages of apoptotic cells were quantified. ^aP < 0.005 versus VEGF-treated cells

[5] = tested on: HUVECs; assay: Annexin V-FITC apoptosis assay in HUVECs; assay type: cell-based, human; conditions: 0.5% FBS, 16 h
Method: as §2, §1
The experiment was repeated three times. Magnification is × 40. b The 7-mer induces HUVEC apoptosis in the presence of VEGF. Cell apoptosis was analyzed using the Annexin V-FITC Apoptosis Detection kit according to the in situ staining protocol after treatment for 16 h. Double staining with an annexin V-FITC and the fluorescent dye Hoechst 33342 was used to visualize the apoptotic cells (green) and nuclei (blue), respectively. A representative result of four independent experiments is shown. The percentages of apoptotic cells were quantified. ^aP < 0.005 versus VEGF-treated cells

[6] = tested on: p53, Bax, p21, cleaved caspase-3; assay: Western blot of p53, Bax, p21 and cleaved caspase-3 in RPMI8226 cells; assay type: cell-based, human; conditions: 10 μM inhibitor pretreatment, then VEGF + 25 μM 7-mer
Source text: Cell lysis and SDS–PAGE were as described previously. Antibodies used in this study were for active p38 MAPK and active JNK (Promega, Madison, WI), p38 MAPK/SAPK2, JNK (Upstate Biotechnology, Lake Placid, NY), p53 (Chemicon, Temecula, CA), bax, p21, cleaved caspase-3 and β-actin (Abcam Ltd., Cambridge, UK). Proteins of interest were detected using the appropriate IgG-horseradish peroxidase-linked secondary antibody (Santa Cruz Biotechnology) and enhanced chemiluminescence reagent (Amersham, Arlington Heights, IL). X-ray films were scanned on a model GS-700 Imaging Densitometer (Bio-Rad, Hercules, CA) and analyzed with Labworks 4.0 software. For quantification, blots from at least three independent experiments were used.
Fig. 4 The 7-mer induces JNK signaling to trigger p53/bax/p21^Waf1 expression in RPMI8226 cells. a and b Cell treatments were as described in Fig. 3. Cell lysates were then prepared for western blot analysis of p53, Bax, and p21. Representative blots and densitometric analyses from three independent experiments are shown. ^*P < 0.001 versus 7-mer-treated cells

Molecule: 7-mer D64 alanine substitution: 7-mer with single alanine substitution of D64 (ALYRVRS; ends and bridges not checked; UniProt P36955 64-70, looked up, variant D64A)
- MTT value, VEGF-induced RPMI8226 cell proliferation ([1]; 24 h, mean ± SD): 69 ± 3.5%

Molecule: 7-mer L65 alanine substitution: 7-mer with single alanine substitution of L65 (DAYRVRS; ends and bridges not checked; UniProt P36955 64-70, looked up, variant L65A)
- MTT value, VEGF-induced RPMI8226 cell proliferation ([1]; 24 h, mean ± SD): 74 ± 0.9%

Molecule: 18-mer: PEDF fragment Asn60-Asn77 of previous studies (NFGYDLYRVRSSTSPTTN; UniProt P36955 60-77, looked up, fragment)
- neurotrophic activity [2]: no neurotrophic activity
- anti-angiogenic and antitumor activities of human PEDF [2]: preserve the anti-angiogenic and antitumor activities of human PEDF

Molecule: 23-mer: PEDF fragment A55-N77 of previous studies (AAAVSNFGYDLYRVRSSTSPTTN; UniProt P36955 55-77, looked up, fragment)
- anti-angiogenic and antitumor activities of human PEDF [2]: devoid of PEDF activity

Molecule: 34-mer: PEDF amino acid positions Asp44-Asn77, N-acetylated, C-amidated (Ac-DPFFKVPVNKLAAAVSNFGYDLYRVRSSTSPTTN-NH2; UniProt P36955 44-77, looked up, fragment) [reference compound]
- cytotoxic effect on RPMI8226 cells in the absence of VEGF [1]: neither peptide had a significant cytotoxic effect
- MTT value, VEGF-induced RPMI8226 cell proliferation ([1]; 24 h, mean ± SD): 84 ± 4.0%
- dose dependence of cell viability of VEGF-treated RPMI8226 cells ([1]; 1, 5, 10 and 25 μM peptide with VEGF, MTT): cell viability decreased significantly with the 34-mer treatment at 10 and 25 μM, but not at 1 and 5 μM
- apoptotic (annexin V+) RPMI8226 cells ([3]; 10 ng/ml VEGF + 25 μM peptide, 24 h, serum-free, early + late apoptosis, mean ± SD, three independent experiments): 25.1 ± 2.2%
- VEGF-stimulated tube-like network of HUVECs [4]: marked decrease of the VEGF-stimulated tube-like network
- apoptotic HUVECs (annexin V-FITC) ([5]; 20 ng/ml VEGF + peptide (20 μM), four independent experiments): 20.1 ± 4.4%
- neurotrophic activity [2]: no neurotrophic activity
- anti-angiogenic and antitumor activities of human PEDF [2]: preserve the anti-angiogenic and antitumor activities of human PEDF

Molecule: Oc1c2ccccc2c2c3c(cccc13)N=N2 [SP600125, reference compound]
- 7-mer-induced RPMI8226 cell apoptosis after inhibitor pretreatment ([3]; 10 μM inhibitor for 10 min, then 10 ng/ml VEGF + 25 μM 7-mer for 24 h, 7-mer alone 38.6 ± 2.1%): 11.6 ± 1.5%
- 7-mer-induced increases of p53, bax, p21 and cleaved caspase-3 after inhibitor pretreatment [6]: significantly inhibited

Molecule: D64N/L65V double mutant of the 7-mer: 7-mer with D64N/L65V double mutation (NVYRVRS; ends and bridges not checked; UniProt P36955 64-70, looked up, variant D64N L65V)
- MTT value, VEGF-induced RPMI8226 cell proliferation ([1]; 24 h, mean ± SD): 117 ± 4.1%

Molecule: VEGF
- MTT value, RPMI8226 cells with VEGF alone ([1]; 10 ng/ml VEGF without peptide, 24 h, untreated cells set as 100%, mean ± SD): 120 ± 3.9%
- apoptotic (annexin V+) RPMI8226 cells with VEGF alone ([3]; 10 ng/ml VEGF, serum-free, serum deprivation alone 14.0 ± 1.7%): 6.5 ± 1.1%
- apoptotic HUVECs, VEGF-treated only ([5]; 20 ng/ml VEGF): 6.3 ± 1.6%

B1: PEDF: a 50 kDa secreted glycoprotein (protein, UniProt P36955 20-418, looked up)
Pigment epithelium-derived …: QNPASPPEEGSPDPDSTGALVEEEDPFFKVPVNKLAAAVSNFGYDLYRVRSSTSPTTNVLLSPLSVATALSALSLGAEQRTESIIHRALYYDLISSPDIHGTYKELLDTVTAPQKNLKSASRIVFEKKLRIKSSFVAPLEKSYGTRPRVLTGNPRLDLQEINNWVQAQMKGKLARSTKEIPDEISILLLGVAHFKGQWVTKFDSRKTSLEDFYLDEERTVRVPMMSDPKAVLRYGLDSDLSCKIAQLPLTGSMSIIFFLPLKVTQNLTLIEESLTSEFIHDIDRELKTVQAVLTVPKLKLSYEGEVTKSLQEMKLQSLFDSPDFSKITGKPIKLTQVEHRAGFEWNEDGAGTTPSPGLQPAHLTFPLDYHLNQPFIFVLRDTDTGALLFIGKILDPRGP
- MTT value, VEGF-induced RPMI8226 cell proliferation ([1]; 24 h, mean ± SD): 93 ± 3.8%
